The text below walks through data of PubChem BioAssay AID318 (DTP/NCI, 2004).

Structures are written as SMILES. Several values for one entry are separate records, joined by “and”; a condition that tells them apart may be missing. Equal values may be shown once. Toxic doses and inconclusive results are not listed.

The test system of this test is BDF1 mice, P815 leukemia ip, survival T/C. Kind of test: NCI In Vivo Anticancer Drug Screen. Data for tumor model P815 Mast Cell Leukemia (Ascitic) (intraperitoneal) in B6D2F1 (BDF1) mice. To be noted: endpoint: survival time, mean or median, higher = longer survival. On the procedure:
The antitumor activity of compounds was measured in mice bearing transplantable tumors. Survival or tumor size were measured and the results are expressed as the measurement made in the treated group (T) divided by the measurement made in the vehicle treated control group (C). The tumor model used in this assay is P815 Mast Cell Leukemia (Ascitic) (intraperitoneal) in B6D2F1 (BDF1) mice

Where [1] appears, read: dose: 40.0 mg/kg/injection, schedule: Q01DX010 (ip), vehicle: saline.
The mark [2] stands for this setting: dose: 80.0 mg/kg/injection, schedule: Q01DX010 (ip), vehicle: saline.
[3] abbreviates: dose: 250.0 mg/kg/injection, schedule: Q01DX010 (ip), vehicle: saline.
Where [4] appears, read: dose: 15.0 mg/kg/injection, schedule: Q01DX010 (ip), vehicle: saline.
[5] abbreviates: dose: 30.0 mg/kg/injection, schedule: Q01DX010 (ip), vehicle: saline.
The mark [6] stands for this setting: dose: 60.0 mg/kg/injection, schedule: Q01DX010 (ip), vehicle: saline.
The mark [7] stands for this setting: dose: 10.0 mg/kg/injection, schedule: Q01DX015 (ip), vehicle: carboxymethylcellulose (CMC).
Setting [8] is: dose: 20.0 mg/kg/injection, schedule: Q01DX015 (ip), vehicle: carboxymethylcellulose (CMC).
[9] abbreviates: dose: 6.25 mg/kg/injection, schedule: Q01DX010 (ip), vehicle: saline.
[10] abbreviates: dose: 12.5 mg/kg/injection, schedule: Q01DX010 (ip), vehicle: saline.
Where [11] appears, read: dose: 54.0 mg/kg/injection, schedule: Q01DX010 (ip), vehicle: saline.

`CC[n+]1c(-c2ccccc2)c2cc(N)ccc2c2ccc(N)cc21`: the T/C runs as follows: (dose: 0.12 mg/kg/injection, schedule: Q01DX015 (ip), vehicle: saline) 105 % of control; (dose: 0.25 mg/kg/injection, schedule: Q01DX015 (ip), vehicle: saline) 109 % of control; (dose: 0.5 mg/kg/injection, schedule: Q01DX015 (ip), vehicle: saline) 120 % of control; (dose: 1.0 mg/kg/injection, schedule: Q01DX015 (ip), vehicle: saline) 117 % of control; (dose: 2.0 mg/kg/injection, schedule: Q01DX015 (ip), vehicle: saline) 208 % of control; (dose: 5.0 mg/kg/injection, schedule: Q01DX015 (ip), vehicle: saline) 163 % of control. Further, the T/C (dose: 10.0 mg/kg/injection, schedule: Q01DX015 (ip), vehicle: saline) is 87 % of control.
With `CC1CCOS(=O)O1` (stereo unspecified), the T/C was 100 % of control (dose: 10.0 mg/kg/injection, schedule: Q01DX010 (ip), vehicle: saline); 100 % of control (dose: 20.0 mg/kg/injection, schedule: Q01DX010 (ip), vehicle: saline); 100 % of control under setting [1]; 88 % of control under setting [2].
`OCC1OC(n2cnc3c(Cl)ncnc32)C(O)C1O` (stereo unspecified): the T/C is 104 % of control and 108 % of control (dose: 62.5 mg/kg/injection, schedule: Q01DX010 (ip), vehicle: saline); 100 % of control and 104 % of control (dose: 125.0 mg/kg/injection, schedule: Q01DX010 (ip), vehicle: saline); 91 % of control and 100 % of control under setting [3]; 95 % of control (dose: 500.0 mg/kg/injection, schedule: Q01DX010 (ip), vehicle: saline).
For the compound `C[N+](C)(C)c1ncnc2nc[nH]c12`, the T/C by setting is: under setting [4], 100 % of control; under setting [5], 94 % of control; under setting [6], 88 % of control.
For `CC(=O)O[C@]1(C(C)=O)CC[C@H]2[C@@H]3C[C@H](C)C4=CC(=O)C=C[C@]4(C)[C@@]3(F)[C@@H](O)C[C@@]21C`, the T/C was 100 % of control (dose: 3.13 mg/kg/injection, schedule: Q01DX010 (sc), vehicle: steriod suspending solution); 100 % of control (dose: 6.25 mg/kg/injection, schedule: Q01DX010 (sc), vehicle: steriod suspending solution); 100 % of control and 106 % of control (dose: 12.5 mg/kg/injection, schedule: Q01DX010 (sc), vehicle: steriod suspending solution); 100 % of control (dose: 25.0 mg/kg/injection, schedule: Q01DX010 (sc), vehicle: steriod suspending solution); 93 % of control (dose: 100.0 mg/kg/injection, schedule: Q01DX010 (sc), vehicle: steriod suspending solution).
As for `O=C(Nc1ccc(NC(=O)Nc2ccc(C3=NCCN3)cc2)cc1)Nc1ccc(C2=NCCN2)cc1`, the T/C reads like this: (dose: 110.0 mg/kg/injection, schedule: Q01DX010 (ip), vehicle: saline) 113 % of control; (dose: 165.0 mg/kg/injection, schedule: Q01DX010 (ip), vehicle: saline) 113 % of control; under setting [3], 100 % of control; (dose: 375.0 mg/kg/injection, schedule: Q01DX010 (ip), vehicle: saline) 104 % of control.
For the compound `COc1cc([C@@H]2c3cc4c(cc3[C@H](O)[C@H]3COC(=O)[C@@H]23)OCO4)cc(OC)c1OC`, the T/C under setting [7] is 112 % of control; the T/C under setting [8] is 150 % of control; the T/C (dose: 40.0 mg/kg/injection, schedule: Q01DX015 (ip), vehicle: carboxymethylcellulose (CMC)) is 167 % of control.
On to `COc1ccc(CSc2ncnc3nc[nH]c23)cc1`, for which the T/C (dose: 62.5 mg/kg/injection, schedule: Q01DX015 (ip), vehicle: carboxymethylcellulose (CMC)) is 91 % of control.
For `N=[N+]=CC(=O)OCC(N)C(=O)O` (stereo unspecified), the T/C was 110 % of control and 111 % of control (dose: 3.13 mg/kg/injection, schedule: Q01DX010 (ip), vehicle: saline); 118 % of control and 119 % of control under setting [9]; 100 % of control and 123 % of control under setting [10].
Regarding `Clc1ncnc2nc[nH]c12`, the T/C is, setting by setting: (dose: 7.5 mg/kg/injection, schedule: Q01DX010 (ip), vehicle: saline) 100 % of control; (dose: 9.5 mg/kg/injection, schedule: Q01DX010 (ip), vehicle: saline) 100 % of control; under setting [4], 100 % of control; under setting [5], 100 % of control; under setting [6], 104 % of control and 109 % of control.
As to `O=c1cnn(C2OC(CO)C(O)C2O)c(=O)[nH]1` (stereo unspecified), the T/C by setting is: (dose: 800.0 mg/kg/injection, schedule: Q01DX010 (ip), vehicle: saline) 111 % of control; (dose: 1600.0 mg/kg/injection, schedule: Q01DX010 (ip), vehicle: saline) 100 % of control.
With `O=C(Nc1cccc(C(=O)Nc2ccc(C3=NCCN3)cc2)c1)c1ccc(C2=NCCN2)cc1`, the T/C under setting [11] was 112 % of control.
Take `O=C(Nc1cccc(NC(=O)Nc2cccc(C3=NCCN3)c2)c1)Nc1cccc(C2=NCCN2)c1`: the T/C reads like this: (dose: 27.0 mg/kg/injection, schedule: Q01DX010 (ip), vehicle: saline) 121 % of control; under setting [1], 117 % of control; (dose: 66.0 mg/kg/injection, schedule: Q01DX010 (ip), vehicle: saline) 113 % of control; (dose: 90.0 mg/kg/injection, schedule: Q01DX010 (ip), vehicle: saline) 86 % of control.
As to `CCCCN(CCCC)CCCCCN`, the T/C is 111 % of control (dose: 5.0 mg/kg/injection, schedule: Q01DX015 (ip), vehicle: carboxymethylcellulose (CMC)); 103 % of control under setting [7]; 104 % of control under setting [8]; 105 % of control (dose: 30.0 mg/kg/injection, schedule: Q01DX015 (ip), vehicle: carboxymethylcellulose (CMC)).
On to `c1ccc(CNc2ncnc3[nH]ncc23)cc1`, for which the T/C is 100 % of control and 109 % of control (dose: 8.0 mg/kg/injection, schedule: Q01DX010 (ip), vehicle: saline); 100 % of control (dose: 16.0 mg/kg/injection, schedule: Q01DX010 (ip), vehicle: saline); 109 % of control (dose: 32.0 mg/kg/injection, schedule: Q01DX010 (ip), vehicle: saline); 95 % of control and 109 % of control (dose: 64.0 mg/kg/injection, schedule: Q01DX010 (ip), vehicle: saline).
For the compound `CS(=O)(=O)OCCCCOS(C)(=O)=O`, the T/C reads like this: under setting [9], 104 % of control and 118 % of control; under setting [10], 86 % of control; (dose: 25.0 mg/kg/injection, schedule: Q01DX010 (ip), vehicle: saline) 86 % of control and 95 % of control; (dose: 50.0 mg/kg/injection, schedule: Q01DX010 (ip), vehicle: saline) 86 % of control and 95 % of control.
Take `CN(C)c1ccc(Nc2c3ccccc3nc3ccccc23)cc1`: the T/C runs as follows: (dose: 36.0 mg/kg/injection, schedule: Q01DX010 (ip), vehicle: saline) 105 % of control and 122 % of control; under setting [11], 120 % of control and 122 % of control; under setting [2], 166 % of control; (dose: 120.0 mg/kg/injection, schedule: Q01DX010 (ip), vehicle: saline) 111 % of control.
On to `Nc1ccc(OC(=O)Oc2ccc(N)cc2)cc1`, for which the T/C was 97 % of control (dose: 25.0 mg/kg/injection, schedule: Q01DX015 (ip), vehicle: saline); 102 % of control (dose: 50.0 mg/kg/injection, schedule: Q01DX015 (ip), vehicle: saline); 108 % of control (dose: 100.0 mg/kg/injection, schedule: Q01DX015 (ip), vehicle: saline); 104 % of control (dose: 200.0 mg/kg/injection, schedule: Q01DX015 (ip), vehicle: saline).
